Measured values taken from patent US20230227484A1, “PYRIMIDINE COMPOUND AS AXL INHIBITOR” (NANJING CHIA TAI TIANQING PHARMACEUTICAL CO., LTD., priority 2020, published 2023).

Tests used:
[1] = Pharmacokinetic study of compounds on ICR mice; format: in vivo; settings: mouse, po, male ICR mice, plasma; for AUC(0-t): 10 mg/kg-kg^1 by gavage, read-out: AUC0-24
Experimental: Each compound is prepared with DMSO into a 10 mg/mL stock solution.
Preparation of mixed solvent: Tween 80: PEG400: Water=1:9:90 (v/v/v)
450 μl of the compound DMSO stock solution with a concentration of 10 mg/nmL is accurately sucked into a glass bottle, and added with an appropriate volume of DMSO and mixed solvent, wherein a ratio of the solvent in the final formulation is DMSO: mixed solvent (v/v)=10:90. The mixed solution is vortexed (or ultrasonically treated), and dispersed uniformly to obtain 4.5 mL. administration test solutions with a concentration of 1 mg/nL, respectively.
Male 6-10 week old ICR mice (sourced from: Beijing Vital River Laboratory Animal Technology Co., Ltd.) are taken, 6 mice in each group. The mice are fasted overnight and fed 4 h after the administration. On the day of the experiment, the mice are administrated with 10 mg-kg^1 of compound test solution by gavage. After administration, about 100 μL of blood is harvested from the orbits of the mice at 0 min, 5 mmn, 15 mmn, 30 min, 14 h 2 h, 4 h, 8 h, and 24 h, and placed in EDTA-K2 anticoagulant tubes. The whole blood sample is centrifuged at 1500 to 1600 g for 10 mm, and the plasma obtained by separation is stored in a refrigerator at −40 to −20° C. for biological sample analysis. The blood drug concentration is determined by an LC-MS/MS method.
A non-compartmental model in Pharsight Phoenix 7.0 is used to calculate pharmacokinetic parameters. The specific results are shown in 5 the table below.

[2] = test system: human acute monocytic leukemia cell MV-4-11 xenograft tumor; experiment: In-vivo efficacy of compound for MV4-11 xenograft tumor model of nude mouse; settings: MV4-11, po, intragastric 5 mg/kg/d, once a day, end of experiment, MV-4-11 xenograft nude mice; for response vs control in vivo at 5 mg/kg/day: read-out: Relative tumor proliferation rate (% T/C); for inhibition in vivo at 5 mg/kg/day: read-out: Tumor growth inhibition rate (TGI %)
Experimental: Inhibitory effects of a compound and a positive drug on the in-vivo tumor growth of a xenograft tumor model of a nude mouse on human acute monocytic leukemia cell MV-4-11 are tested.
MV-4-11 cells in a logarithmic growth phase are harvested, resuspended after cell counting, and adjusted in cell concentration to 7.0×10^7 cells/mL. The resuspended solution is injected into the right armpit of the nude mice subcutaneously. Each animal is inoculated with 200 μL (14×10^6 cells) of the suspended solution to establish a MV-4-11 xenograft tumor model. Afer the tumor volume reaches 100-300 mm^3, tumor-bearing mice in good health and similar tumor volume are selected.
The compound and the positive drug are vortexed with a suitable solvent and then ultrasonicated to completely dissolve the compound. Then, an appropriate volume of citric acid buffer is slowly added, and the mixed solution is vortexed to make the solution mixed uniformly to obtain administrative formulations having concentrations of 0.1, 0.5, and 1 mg-mL^−1.
Solvent control group: PEG400 & citric acid buffer (20:80, v:v).
The modeled mice are randomly divided into groups (n=6), and administrated with the relevant compounds and positive drugs on the day of grouping. After 21 days or after the tumor volume of the solvent control group reaches 2000 mm^3, the experiment is terminated (whichever reaches the index first), and the administration volume is 10 mL-kg^−1. Both the compound and the positive drug are administered by gavage, once a day. After the experiment starts, the tumor diameter and animal body weight are measured twice a week, and the tumor volume is calculated.
The tumor volume(TV) calculation formula is: tumor volume(mm^3)=l×w^2/2,
The calculation formula of relative tumor volume(RTV) is: RTV=TVt/TVinitial
The calculation formula of relative tumor proliferation rate (% T/C) is: % T/C=100%×(RTVT/RTVC)

AXL kinase = target: T1, AXL kinase (Homo sapiens, UniProt P30530); experiment: Inhibitory activity of compound against AXL kinase (HTRF KinEASE); format: biochemical; settings: AXL enzyme (Carna, 08-107), ATP 15 μM; "<" means below detection limit of the test
T1 construct: purchased Carna 08-107
T1 sequence (P30530 473-894 limits assumed): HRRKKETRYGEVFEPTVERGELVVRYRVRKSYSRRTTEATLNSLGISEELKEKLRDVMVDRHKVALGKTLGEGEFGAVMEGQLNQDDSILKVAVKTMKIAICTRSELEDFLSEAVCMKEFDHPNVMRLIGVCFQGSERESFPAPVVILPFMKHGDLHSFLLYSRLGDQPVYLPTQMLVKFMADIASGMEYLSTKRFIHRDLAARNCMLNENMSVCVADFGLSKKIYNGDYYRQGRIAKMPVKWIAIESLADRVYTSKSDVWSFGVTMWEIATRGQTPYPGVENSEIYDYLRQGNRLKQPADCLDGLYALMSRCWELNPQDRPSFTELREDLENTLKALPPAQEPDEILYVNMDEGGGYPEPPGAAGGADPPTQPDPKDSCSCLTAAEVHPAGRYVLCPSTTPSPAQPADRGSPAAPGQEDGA
Method in brief: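 AXL enzyme (final 0.016 ng/uL) was preincubated with compound (8 concentrations from 1 μM, ½ log steps) for 15 min at room temperature, then reacted with TK Substrate 3-biotin (final 1) and ATP (final 15 μM) for 45 min at 25° C. Phosphorylation was read by HTRF (TK antibody-cryptate, streptavidin-XL665, 1 h); IC50 from variable-slope dose-response fit.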

[3] = test system: human acute monocytic leukemia cell MV-4-11 xenograft tumor; experiment: In-vivo efficacy of compound for MV4-11 xenograft tumor model of nude mouse; settings: MV4-11, po
[4] = test system: MV-4-11 (human myeloid monocytic leukemia cell line); experiment: Proliferation inhibition activity of compounds to MV-4-11 cells (CellTiter-Glo); format: cell-based; settings: MV4-11 cells, 72 h dosing
Method in brief: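 MV-4-11 cells, plated 24 h earlier, were exposed 72 h to compounds in 10-point 3-fold dilutions (0.5% DMSO final). Viability read by CellTiter-Glo luminescence; inhibition normalized to blank and untreated controls, IC50 from variable-slope log(inhibitor)-response fit.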

Structure (SMILES) | Cmax ([1]; 10 mg-kg^1 by gavage) | Tmax ([1]; 10 mg-kg^1 by gavage) | half-life ([1]; 10 mg-kg^1 by gavage) | AUC(0-t) [1] | response vs control in vivo at 5 mg/kg/day [2] | inhibition in vivo at 5 mg/kg/day [2] | IC50 (AXL kinase) | inhibition in vivo at 20 mg/kg/day ([3]; intragastric 20 mg/kg/d, once a day, end of experiment, MV-4-11 xenograft nude mice, read-out: Tumor growth inhibition rate (TGI %)) | response vs control in vivo at 20 mg/kg/day ([3]; read-out: Relative tumor proliferation rate (% T/C)) | IC50 [4]
Clc1cnc(Nc2ccc3c(c2)CC[C@@H](N2CCCC2)CC3)nc1Nc1ccccc1-c1ncc[nH]1 [Example 18, (S)—N^4-(2-(1H-imidazol-2-yl)phenyl)-5-chloro-N^2-(7-(pyrrolidin-1-yl)-6,7,8,9-tetrahydro-5H-benzo[7]annulen-2-yl)pyrimidine-2,4-diamine] | 249 ng/mL | 2 h | 182 min | 2300 ng·h/mL | 37% | 71% | 0.19 nM | – | – | –
CN1Cc2cccc(Nc3nc(Nc4ccc5c(c4)CC[C@@H](N4CCCC4)CC5)ncc3Cl)c2C1=O [Example 28, (S)-7-((5-chloro-2-(((7-(pyrrolidin-1-yl)-6,7,8,9-tetrahydro-5H-benzo[7]annulen-2-yl)amino))pyrimidin-4-yl)amino)-2-methylisoindolin-1-one] | 226 ng/mL | 8 h | – | 3000 ng·h/mL | 5.9% | 104% | 0.31 nM | – | – | –
Nc1nc(Nc2ccc3c(c2)CC[C@@H](N2CCCC2)CC3)nn1-c1cc2c(nn1)-c1ccccc1CCC2 [Positive drug 1 (BGB324), BGB324] | – | – | – | – | – | – | – | 32% | 71% | 208 nM
CN1CCN(Cc2ccc(Nc3ncc(Cl)c(Nc4ccccc4S(=O)(=O)N(C)C)n3)cc2)CC1 [Positive drug 2 (TP0903), TP0903, reference compound] | 26.8 ng/mL | 0.25 h | – | 52.2 ng·h/mL | 42% | 62% | – | – | – | 12 nM
